Experimental findings from ChEMBL document CHEMBL1150018, “New reagents for controlled release of nitric oxide. Structure-stability relationships” (Bioorg Med Chem Lett, 1996) are described below.

What all share (assay type): ADME
The nature of data set [1]: Half life was determined. Particulars: rat.
The nature of data set [2]: Kinetic constant log k was determined.
The nature of data set [3]: Rate of decomposition in aqueous solution (pH 8.0, 30 degree Celsius) at 107 min. Particulars: buffer, pH 8, 107 min.
Data set [4] can be described thus: Rate of decomposition in aqueous solution(pH 8.0, 30 degree Celsius)at 350 min. Particulars: buffer, pH 8, 350 min.
Data set [5] in a line: Rate of decomposition in aqueous solution (pH 8.0, 30 degree Celsius) at 150 min. The following applies: buffer, pH 8, 2.5 h.
Data set [6] can be described thus: Rate of decomposition in aqueous solution (pH 8.0, 30 degree Celsius) at 87 min. The following applies: buffer, pH 8, 1.45 h.
Data set [7] is described as follows: Rate of decomposition in aqueous solution (pH 8.0, 30 degree Celsius) at 84 min. The following applies: buffer, pH 8, 1.4 h.
Data set [8] in a line: Rate of decomposition in aqueous solution (pH 8.0, 30 degree Celsius) at 2.6 min. Particulars: buffer, pH 8, 156 s.
Data set [9] is described as follows: Rate of decomposition in aqueous solution (pH 8.0, 30 degree Centigrade) at 5.3 min. The following applies: buffer, pH 8, 318 s.
Data set [10] is described as follows: Rate of decomposition in aqueous solution (pH 8.0, 30 degree Celsius) at 46 min. Particulars: buffer, pH 8, 46 min.
The nature of data set [11]: Rate of decomposition in aqueous solution (pH 8.0, 30 degree Celsius) at 35 min. Particulars: buffer, pH 8, 35 min.
Data set [12] in a line: Rate of decomposition in aqueous solution (pH 8.0, 30 degree Celsius) at 1500 min. Particulars: buffer, pH 8, 25 h.
The nature of data set [13]: Rate of decomposition in aqueous solution (pH 8.0, 30 degree Celsius) at 690 min. Particulars: buffer, pH 8, 11.5 h.
Data set [14] is described as follows: Rate of decomposition in aqueous solution (pH 8.0, 30 degree Celsius) at 350 min. Particulars: buffer, pH 8, 350 min.
Data set [15] is described as follows: Rate of decomposition in aqueous solution (pH 8.0, 30 degree Celsius) at 190 min. Particulars: buffer, pH 8, 190 min.
Data set [16] can be described thus: Rate of decomposition in aqueous solution (pH 8.0, 30 degree Celsius) at 86 min. The following applies: buffer, pH 8, 86 min.
The nature of data set [17]: Rate of decomposition in aqueous solution (pH 8.0, 30 degree Celsius) at 580 min. The following applies: buffer, pH 8, 580 min.
A short description of data set [18]: Rate of decomposition in aqueous solution (pH 8.0, 30 degree Celsius) at 1800 min. The following applies: buffer, pH 8, 30 h.
Data set [19] in a line: Rate of decomposition in aqueous solution (pH 8.0, 30 degree Celsius) at 2900 min. The following applies: buffer, pH 8, 2900 min.
Data set [20] is described as follows: Rate of decomposition in aqueous solution (pH 8.0, 30 degree Celsius) at 270 min. Particulars: buffer, pH 8, 4.5 h.

Usually half-life stands for the time in which the quantity being followed falls by half.

In data set [1], `CC/C(=C\C(CNC(=O)c1cccnc1)=N\O)C(C)[N+](=O)[O-]` (stereo unspecified) displayed a half-life of 107 min. Also, the Log k in data set [2] is listed as -2.187. For the same molecule, the k in [3] came to 0.0065 min⁻¹.

For the molecule `CCC(/C(C)=C/C(CNC(=O)c1cccnc1)=N/O)[N+](=O)[O-]` (stereo unspecified), the half-life in data set [1] is 350 min. This molecule also returned a Log k in [2] of -2.699. In data set [4], this molecule had a k of 0.002 min⁻¹.

For the molecule `CC/C(=C\C(=N\O)C(N)=O)C(CC)[N+](=O)[O-]` (stereo unspecified), the half-life in data set [1] worked out at 150 min. This molecule displayed a Log k in data set [2] of -2.347. Moreover, the k in [5] was 0.0045 min⁻¹.

In data set [1], `CC(=O)NCC(/C=C1\CCCCC1[N+](=O)[O-])=N\O` (stereo unspecified) displayed a half-life of 87 min. The molecule also returned a k in data set [6] of 0.008 min⁻¹.

For `O=C(NCC(/C=C1\CCCCC1[N+](=O)[O-])=N\O)c1cccnc1` (stereo unspecified), in data set [1], the half-life is 84 min. Moreover, the k in [7] worked out at 0.0083 min⁻¹.

For the molecule `COCC(/C(C)=C/C(=N/O)C(N)=O)[N+](=O)[O-]` (stereo unspecified), the half-life in [1] stood at 2.6 min. This molecule came in with a Log k in data set [2] of 0.569. The same molecule showed a k in [8] of 0.27 min⁻¹.

On to `COCC(/C(C)=C/C(CNC(=O)c1cccnc1)=N/O)[N+](=O)[O-]` (stereo unspecified), for which the half-life in [1] came to 5.3 min. This molecule also showed a Log k in data set [2] of -0.886. This molecule had a k in data set [9] of 0.13 min⁻¹.

Turning to `CC/C(=C\C(=N\O)C(N)=O)C(C)[N+](=O)[O-]` (stereo unspecified), in data set [1], the half-life worked out at 46 min. The molecule also came in with a Log k in data set [2] of -1.824. For the same molecule, the k in data set [10] stood at 0.00025 s⁻¹.

With `NC(=O)C(/C=C1\CCCCC1[N+](=O)[O-])=N\O` (stereo unspecified), the half-life in data set [1] is 35 min. The k in data set [11] was found to be 0.02 min⁻¹.

In data set [1], `CC/C(=C\C(CNC(C)=O)=N\O)C(C(C)C)[N+](=O)[O-]` (stereo unspecified) returned a half-life of 1500 min. This molecule also returned a Log k in data set [2] of -3.337. In [12], this molecule registered a k of 0.00046 min⁻¹.

In [1], `CC/C(=C\C(=N\O)C(N)=O)C(C(C)C)[N+](=O)[O-]` (stereo unspecified) came in with a half-life of 690 min. Also, in data set [2], the Log k was -3. In [13], the k amounted to 0.001 min⁻¹.

Regarding `CC/C(=C\C(CNC(=O)c1cccnc1)=N\O)C(CC)[N+](=O)[O-]` (stereo unspecified), the half-life in [1] amounted to 350 min. For the same molecule, the Log k in [2] is -2.699. In data set [14], the k worked out at 0.002 min⁻¹.

`CC(C)/C(=C\C(=N\O)C(N)=O)C(C)[N+](=O)[O-]` (stereo unspecified) registered a half-life in data set [1] of 190 min. The molecule further had a Log k in data set [2] of -2.432. In [15], this molecule returned a k of 0.0037 min⁻¹.

Turning to `CC/C(=C\C(CNC(C)=O)=N\O)C(C)[N+](=O)[O-]` (stereo unspecified), the half-life in [1] is 86 min. Besides, the Log k in [2] was -2.092. The same molecule had a k in [16] of 0.0081 min⁻¹.

`CC(C)/C(=C\C(CNC(=O)c1cccnc1)=N\O)C(C)[N+](=O)[O-]` (stereo unspecified) gave a half-life in [1] of 580 min. Further, the Log k in [2] is -2.921. Moreover, the k in data set [17] was determined as 0.0012 min⁻¹.

Take `CC/C(=C\C(CNC(=O)c1cccnc1)=N\O)C(C(C)C)[N+](=O)[O-]` (stereo unspecified): the half-life in data set [1] amounted to 1800 min. Besides, the Log k in data set [2] is -3.42. The molecule also displayed a k in data set [18] of 0.00038 min⁻¹.

`CC/C(=C\C(=N\O)C(N)=O)C([N+](=O)[O-])C(C)(C)C` (stereo unspecified) had a half-life in data set [1] of 2900 min. Further, the Log k in data set [2] was -3.62. This molecule also showed a k in data set [19] of 0.00024 min⁻¹.

Molecule `CC/C(=C\C(CNC(C)=O)=N\O)C(CC)[N+](=O)[O-]` (stereo unspecified) came in with a half-life in [1] of 270 min. For the same molecule, the Log k in data set [2] is -2.585. The k in data set [20] was determined as 0.0026 min⁻¹.
